From patent US20260274853A1, “BIFUNCTIONAL COMPOUNDS CONTAINING PYRIMIDINE DERIVATIVES FOR DEGRADING CYCLIN-DEPENDENT KINASE 2 VIA UBIQUITIN PROTEASOME PATHWAY” (NIKANG THERAPEUTICS, INC., priority 2022, published 2026)

How the values were obtained:
CDK2 [1] = target: T1, CDK2 (Homo sapiens, UniProt P24941); test: Inhibition of CDK2: phospho-Rb (S807/811) HTRF measurement in OVCAR3 cells; assay type: cell-based; settings: 24 h compound treatment, read-out: pRb (nM), IC50 in pRB(S807/811) assay
T1 construct: High-Throughput Measurement of Cellular Endogenous CDK2; endogenous in cells; host or cells: OVCAR3

CDK2 [2] = target: T1, CDK2; test: CDK2 HTRF assay: cellular endogenous CDK2 level in OVCAR3 cells; assay type: cell-based; settings: 24 hours compound treatment, read-out: DC50 (half maximal degradation concentration of CDK2)
Experimental: Effects of compounds on cellular CDK2 level can be monitored by a high-throughput HTRF assay or traditional Western Blot assay.
To determine half maximal degradation concentration (DC50) values of compounds, cellular CDK2 level was measured in 96-well format using HTRF total CDK2 cellular kit (Cat #64CDK2TPEG) from Cisbio.
On Day 1, OVCAR3 cells were seeded into 96-well tissue-culture treated plates at 20,000 cells/well in 200 μL and incubated overnight at 37° C. in CO2 atmosphere. On Day 2 cells were treated with compounds at concentration ranging from 0.3 to 10,000 nM using HP D300 digital dispenser. 24 hours after compound treatment, cell culture media was removed by flicking the plate and tapping the plate against clean paper towel. Immediately 30 μL 1× lysis buffer was supplemented from the kit and the plate was incubated at room temperature on shaker for 30 min. After homogenization by pipetting up and down, 8 μL cell lysate from 96-well cell culture plate was transferred to 384-well small volume white detection plate. 2 μL premixed detection solution was added and the plate was covered with sealer. To prepare the detection solution, d2 conjugated-CDK2 antibody and Eu-cryptate conjugated CDK2 antibody were diluted into detection buffer following manufacturer's instruction. Detection plates were incubated overnight at room temperature and read on ClarioStar (BMG Labtech) in TR-FRET mode (665 nM and 620 nM). The TR-FRET ratio (665 nM/620 nM) was plotted against the compound concentration and normalized to DMSO controls. Half maximal degradation concentration (DC50) values were calculated with a four-parameter logistic fit using GraphPad Prism (version 8; La Jolla, CA).
In the table below, A indicates a DC50 of less than 0.1 μM; B indicates a DC50 of greater than or equal to 0.1 μM but less than 0.5 μM; C indicates a DC50 of greater than or equal to 0.5 μM but less than 1 μM; and D indicates a DC50 of greater than or equal to 1 μM but less than 10 μM.

Compound	IC50 (CDK2 [1]) [nM]	DC50 (CDK2 [2]) [nM]
O=C1CCN(c2ccc(N3CCN(Cc4cccc(S(=O)(=O)N5CCC(Nc6ncc(C(F)(F)F)c(-c7cnn(CC(F)(F)F)c7)n6)CC5)c4)CC3)cc2)C(=O)N1 [Example 25, 1-(4-(4-(3-((4-((4-(1-(2,2,2-trifluoro-ethyl)-1H-pyrazol-4-yl)-5-(trifluoro-methyl)pyrimidin-2-yl)amino)-piperidin-1-yl)sulfonyl)benzyl)piperazin-1-yl)-phenyl)dihydro-pyrimidine-2,4(1H,3H)-dione]	< 100	< 100
Cn1c(S(=O)(=O)N2CCC(Nc3ncc(C(F)(F)F)c(-c4cnn(CC(F)(F)F)c4)n3)CC2)cnc1CN1CCN(c2ccc(N3CCC(=O)NC3=O)cc2)CC1 [Example 26, 1-(4-(4-((1-methyl-5-((4-((4-(1-(2,2,2-trifluoroethyl)-1H-pyrazol-4-yl)-5-(trifluoromethyl)pyrimidin-2-yl)amino)-piperidin-1-yl)sulfonyl)-1H-imidazol-2-yl)methyl)piperazin-1-yl)phenyl)dihydro-pyrimidine-2,4(1H,3H)-dione]	100 to 500	< 100
Cn1c(S(=O)(=O)N2CCC(Nc3ncc(C(F)(F)F)c(-c4cnn(CC(F)(F)F)c4)n3)CC2)cnc1CN1CCN(c2cc3c(cc2F)C(=O)N(C2CCC(=O)NC2=O)C3=O)CC1 (stereo not drawn) [Example 30, 2-(2,6-dioxopiperidin-3-yl)-5-fluoro-6-(4-((1-methyl-5-((4-((4-(1-(2,2,2-trifluoroethyl)-1H-pyrazol-4-yl)-5-(trifluoromethyl)pyrimidin-2-yl)amino)-piperidin-1-yl)sulfonyl)-1H-imidazol-2-yl)methyl)piperazin-1-yl)isoindoline-1,3-dione]	100 to 500	< 100
O=C1CCC(N2C(=O)c3cc(F)c(N4CC5(CN(Cc6cccc(S(=O)(=O)N7CCC(Nc8ncc(C(F)(F)F)c(-c9cnn(CC(F)(F)F)c9)n8)CC7)c6)C5)C4)cc3C2=O)C(=O)N1 (stereo not drawn) [Example 31, 2-(2,6-dioxopiperidin-3-yl)-5-fluoro-6-(6-(3-((4-((4-(1-(2,2,2-trifluoroethyl)-1H-pyrazol-4-yl)-5-(trifluoromethyl)-pyrimidin-2-yl)amino)piperidin-1-yl)-sulfonyl)benzyl)-2,6-diazaspiro[3.3]-heptan-2-yl)isoindoline-1,3-dione]	< 100	< 100
Cn1cc(-c2nc(NC3CCN(S(=O)(=O)c4cccc(CN5CCC(c6ccc7c(N8CCC(=O)NC8=O)nn(C)c7c6)CC5)c4)CC3)ncc2C(F)(F)F)cn1 [Example 33, 1-(1-methyl-6-(1-(3-((4-((4-(1-methyl-1H-pyrazol-4-yl)-5-(trifluoromethyl)-pyrimidin-2-yl)amino)piperidin-1-yl)-sulfonyl)benzyl)piperidin-4-yl)-1H-indazol-3-yl)dihydropyrimidine-2,4(1H,3H)-dione]	< 100	< 100
C[C@@H]1CN(S(=O)(=O)c2cccc(CN3CCC(c4ccc5c(N6CCC(=O)NC6=O)nn(C)c5c4)CC3)c2)CC[C@@H]1Nc1ncc(C(F)(F)F)c(-c2cnn(CC(F)(F)F)c2)n1 [Example 34, 1-(1-methyl-6-(1-(3-(((3R,4S)-3-methyl-4-((4-(1-(2,2,2-trifluoroethyl)-1H-pyrazol-4-yl)-5-(trifluoromethyl)-pyrimidin-2-yl)amino)piperidin-1-yl)-sulfonyl)benzyl)piperidin-4-yl)-1H-indazol-3-yl)dihydropyrimidine-2,4(1H,3H)-dione]	100 to 500	< 100
O=C1CCN(c2ccc(N3CCN(Cc4cccc(S(=O)(=O)N5CCC(Nc6ncc(C(F)(F)F)c(-c7cnn(CC(F)(F)F)c7)n6)CC5)c4)CC3)nc2)C(=O)N1 [Example 41, 1-(6-(4-(3-((4-((4-(1-(2,2,2-trifluoro-ethyl)-1H-pyrazol-4-yl)-5-(trifluoro-methyl)pyrimidin-2-yl)amino)-piperidin-1-yl)sulfonyl)benzyl)-piperazin-1-yl)pyridin-3-yl)dihydro-pyrimidine-2,4(1H,3H)-dione]	< 100	< 100
Cn1nc(N2CCC(=O)NC2=O)c2ccc(C3CCN(CC4CCN(c5cccc(S(=O)(=O)N6CCC(Nc7ncc(C(F)(F)F)c(-c8cnn(CC(F)(F)F)c8)n7)CC6)c5)CC4)CC3)cc21 [Example 50, 1-(1-methyl-6-(1-((1-(3-((4-((4-(1-(2,2,2-trifluoroethyl)-1H-pyrazol-4-yl)-5-(trifluoromethyl)pyrimidin-2-yl)amino)-piperidin-1-yl)sulfonyl)phenyl)-piperidin-4-yl)methyl)piperidin-4-yl)-1H-indazol-3-yl)dihydropyrimidine-2,4(1H,3H)-dione]	< 100	< 100
Cn1nc(N2CCC(=O)NC2=O)c2ccc(C3CCN(Cc4cc(S(=O)(=O)N5CCC(Nc6ncc(C(F)(F)F)c(-c7cnn(CC(F)(F)F)c7)n6)CC5)ccc4F)CC3)cc21 [Example 61, 1-(6-(1-(2-fluoro-5-((4-((4-(1-(2,2,2-trifluoroethyl)-1H-pyrazol-4-yl)-5-(trifluoromethyl)pyrimidin-2-yl)-amino)piperidin-1-yl)sulfonyl)benzyl)-piperidin-4-yl)-1-methyl-1H-indazol-3-yl)dihydropyrimidine-2,4(1H,3H)-dione]	< 100	< 100
Cc1ncsc1-c1ccc([C@H](C)NC(=O)[C@@H]2C[C@@H](O)CN2C(=O)[C@@H](NC(=O)CC2CCN(Cc3cccc(S(=O)(=O)N4CCC(Nc5ncc(C(F)(F)F)c(-c6cnn(CC(F)(F)F)c6)n5)CC4)c3)CC2)C(C)(C)C)cc1 [Example 62, (2S,4R)-1-((S)-3,3-dimethyl-2-(2-(1-(3-((4-((4-(1-(2,2,2-trifluoroethyl)-1H-pyrazol-4-yl)-5-(trifluoromethyl)-pyrimidin-2-yl)amino)piperidin-1-yl)-sulfonyl)benzyl)piperidin-4-yl)-acetamido)butanoyl)-4-hydroxy-N-((S)-1-(4-(4-methylthiazol-5-yl)phenyl)-ethyl)pyrrolidine-2-carboxamide]	< 100	< 100
Cn1nc(N2CCC(=O)NC2=O)c2ccc(C3CCN(Cc4cccc(S(=O)(=O)N5CCC(Nc6ncc(C(F)(F)F)c(-c7cnn(CC(F)(F)F)c7)n6)CC5)c4)CC3)c(F)c21 [Example 64, 1-(7-fluoro-1-methyl-6-(1-(3-((4-((4-(1-(2,2,2-trifluoroethyl)-1H-pyrazol-4-yl)-5-(trifluoromethyl)pyrimidin-2-yl)amino)-piperidin-1-yl)sulfonyl)-benzyl)-piperidin-4-yl)-1H-indazol-3-yl)dihydro-pyrimidine-2,4(1H,3H)-dione]	< 100	< 100
O=C1CCC(N2CC3CCC(C2)N3Cc2cccc(S(=O)(=O)N3CCC(Nc4ncc(C(F)(F)F)c(-c5cnn(CC(F)(F)F)c5)n4)CC3)c2)C(=O)N1 (stereo not drawn) [Example 65, 3-(8-(3-((4-((4-(1-(2,2,2-trifluoro-ethyl)-1H-pyrazol-4-yl)-5-(trifluoro-methyl)pyrimidin-2-yl)amino)-piperidin-1-yl)sulfonyl)benzyl)-3,8-diazabicyclo-[3.2.1]octan-3-yl)-piperidine-2,6-dione]	< 100	< 100
Cn1nc(N2CCC(=O)NC2=O)c2ccc(N3CCN(CC4CCN(c5cccc(S(=O)(=O)N6CCC(Nc7ncc(C(F)(F)F)c(-c8cnn(CC(F)(F)F)c8)n7)CC6)c5)CC4)CC3)cc21 [Example 67, 1-(1-methyl-6-(4-((1-(3-((4-((4-(1-(2,2,2-trifluoroethyl)-1H-pyrazol-4-yl)-5-(trifluoromethyl)pyrimidin-2-yl)amino)-piperidin-1-yl)sulfonyl)phenyl)piperidin-4-yl)methyl)-piperazin-1-yl)-1H-indazol-3-yl)-dihydropyrimidine-2,4(1H,3H)-dione]	< 100	< 100
O=C1CCC(NCc2cccc(S(=O)(=O)N3CCC(Nc4ncc(C(F)(F)F)c(-c5cnn(CC(F)(F)F)c5)n4)CC3)c2)C(=O)N1 (stereo not drawn) [Example 68, 3-((3-((4-((4-(1-(2,2,2-trifluoroethyl)-1H-pyrazol-4-yl)-5-(trifluoromethyl)-pyrimidin-2-yl)amino)piperidin-1-yl)-sulfonyl)benzyl)amino)piperidine-2,6-dione]	< 100	< 100
Cn1c(S(=O)(=O)N2CCC(Nc3ncc(C(F)(F)F)c(-c4cnn(CC(F)(F)F)c4)n3)CC2)cnc1CN1CCN(c2ccc3c(N4CCC(=O)NC4=O)nn(C)c3c2)CC1 [Example 69, 1-(1-methyl-6-(4-((1-methyl-5-((4-((4-(1-(2,2,2-trifluoroethyl)-1H-pyrazol-4-yl)-5-(trifluoromethyl)pyrimidin-2-yl)amino)-piperidin-1-yl)sulfonyl)-1H-imidazol-2-yl)methyl)piperazin-1-yl)-1H-indazol-3-yl)dihydropyrimidine-2,4(1H,3H)-dione]	< 100	< 100
